From publication PMC4262413, “Importance of Tryptophan in Transforming an Amphipathic Peptide into a Pseudomonas aeruginosa-Targeted Antimicrobial Peptide” (PLoS ONE, 2014)
Values after ≈ are worked out from the molar mass of the structure shown. Residues, ends and D or L forms follow the SMILES beside them.

How the values were obtained:
[1] = system: E. coli 25922; test: microbe, parasite or virus in culture; type: cell-based, Escherichia coli
Protocol: (§1) Minimal inhibitory concentration (MIC) assays were performed as described previously. Briefly, after incubation overnight in Mueller-Hinton (MH) broth at 37°C, the bacteria were grown to exponential growth phase and diluted to approximately 1×10^5 CFU/ml. The peptides were dissolved in 0.2% bovine serum albumin (BSA) containing 0.01% (v/v) acetic acid, and they were then added to each well of a 96-well plates at a final concentration ranging from 0.25 to 128 µM. Each well contained a total volume of 100 µL (50 µL of inoculums and 50 µL of peptide-containing solution). The MICs were determined as the lowest concentration of peptide that prevented visible turbidity by visual inspection after incubation at 37°C for 16–18 h. Independent experiments were carried out at least three times. Uninoculated MH broth was used as a negative control and cultures without added peptides served as the positive control. Minimal bactericidal concentration (MBC) assay was performed following MIC assay. At the end of MIC assay 10 µL aliquots of the medium were taken from peptide-containing wells with no visible bacterial growth. These are plated on MH agar, incubated for 18 h to allow colony growth. The MBC was defined as the lowest peptide concentration resulting in no bacterial growth in the media. Each assay was performed at least three times.

[2] = system: S. typhimurium 7731; test: microbe, parasite or virus in culture; type: cell-based, Salmonella typhimurium
Protocol: as §1

[3] = system: S. aureus 29213; test: microbe, parasite or virus in culture; type: cell-based, Staphylococcus aureus
Protocol: as §1

[4] = system: S. epidermidis 12228; test: microbe, parasite or virus in culture; type: cell-based, Staphyfococcus epidermidis
Protocol: as §1

[5] = system: P. aeruginosa 27853; test: microbe, parasite or virus in culture; type: cell-based, Pseudomonas aeruginosa
Protocol: as §1

[6] = system: P. auruginosa 10419; test: microbe, parasite or virus in culture; type: cell-based, Pseudomonas aeruginosa
Protocol: as §1

[7] = system: P. auruginosa 21625; test: microbe, parasite or virus in culture; type: cell-based, Pseudomonas aeruginosa
Protocol: as §1

[8] = system: P. auruginosa 21630; test: microbe, parasite or virus in culture; type: cell-based, Pseudomonas aeruginosa
Protocol: as §1

[9] = system: P. auruginosa LC; test: microbe, parasite or virus in culture; type: cell-based, Pseudomonas aeruginosa
Protocol: as §1

[10] = system: P. auruginosa LCCE (ceftazidime-resistant strain); test: microbe, parasite or virus in culture
Protocol: as §1
(§2) The antimicrobial activity of the RI16 and mutant peptides against Gram-negative and Gram-positive bacteria were determined.

[11] = system: P. auruginosa LCCI (ciprofloxacin-resistant strain); test: microbe, parasite or virus in culture
Protocol: as §1, §2

[12] = system: P. auruginosa LCGE (gentamincin-resistant strain); test: microbe, parasite or virus in culture
Protocol: as §1, §2

[13] = system: Female KM mice; test: In vivo toxicity; parameters: species or system Chinese Kun Ming (KM) mice; conditions: intraperitoneal injection, 3, 6, 30 or 60 mg per kg of body weight, 10/group
Protocol: The in vivo toxicity of the peptide was also evaluated. Female KM mice (weighing 20 to 25 g) were injected intraperitoneally with 0.1 ml saline and 3, 6, 30, and 60 mg peptide per kg of body weight. The animals (10/group) were directly inspected for adverse effects, such as weight loss, piloerection, motility and mortality for 7 days thereafter. All mice were allowed free water and a maintenance diet in a 12-hour light/dark cycle. All cages contained wood shavings and bedding. The experiment was carried out in strict accordance with the recommendations of the Guide for the Care and Use of Laboratory Animals of Northeast Agricultural University, and the study protocol was approved by Northeast Agricultural University Institutional Animal Care and Use Committee. The mice were monitored for a week and no mice died during the experiment.

[14] = system: P. aeruginosa ATCC27853 biofilms; test: Biofilm biomass assay and FE-SEM imaging; type: cell-based, Pseudomonas aeruginosa
Protocol: A static abiotic solid surface assay was used to analyze biofilm formation as described before, with minor modification. Briefly, overnight cultures of P. aeruginosa ATCC27853 were diluted 1∶100 in fresh medium, added (500 µL) to wells of 12-well culture plates, and grown for 24 h at 37°C. Planktonic cells and loosely attached cells were removed, and wells were then refilled with 500 µL of fresh broth in the absence or presence of different concentrations of peptides. After incubation the biofilms were stained with 0.1% (w/v) crystal violet. Ethanol (95%, v/v) was added to each well, and absorbance was measured at 600 nm. The experiments were done at least three times in duplicate, and the data was expressed as mean ± standard deviations.
For microscopic observation of the biofilm, sterilized coverslips were placed at the bottom of a 12-well plate. After incubation, cells were fixed with 2.5% glutaraldehyde overnight. The samples were then dehydrated through a graded series of ethanol (50%, 70%, 90%, and 100%), followed by critical–point drying, gold sputtering, and examination using an FE-SEM (Hitachi, Japan).

## CC[C@H](C)[C@H](NC(=O)[C@H](CCCCN)NC(=O)[C@H](CCCCN)NC(=O)[C@H](CC(C)C)NC(=O)[C@H](CCCNC(=N)N)NC(=O)[C@H](CCCCN)NC(=O)[C@H](CCCNC(=N)N)NC(=O)[C@H](Cc1c[nH]c2ccccc12)NC(=O)[C@H](CCCCN)NC(=O)[C@H](CCCCN)NC(=O)[C@H](CCCNC(=N)N)NC(=O)[C@H](CC(C)C)NC(=O)[C@H](CCCNC(=N)N)NC(=O)[C@H](CCCNC(=N)N)NC(=O)[C@H](Cc1ccccc1)NC(=O)[C@@H](N)CCCNC(=N)N)C(N)=O [T9W] (H-RFRRLRKKWRKRLKKI-NH2)
[1]; 25922
  MIC: 64 µM (≈ 145 µg/mL)
[1]; 25922, 18 h
  MBC: >128 µM
[2]; 7731
  MIC: 128 µM (≈ 290 µg/mL)
[2]; 7731, 18 h
  MBC: >128 µM
[3]; 29213
  MIC: 128 µM (≈ 290 µg/mL)
[3]; 29213, 18 h
  MBC: >128 µM
[4]; 12228
  MIC: 64 µM (≈ 145 µg/mL)
[4]; 12228, 18 h
  MBC: >128 µM
[5]; 27853
  MIC: 2 µM (≈ 4.54 µg/mL)
[5]; 27853, 18 h
  MBC: 2 µM (≈ 4.54 µg/mL)
[6]
  MIC: 4 µM (≈ 9.07 µg/mL)
[6]; 18 h
  MBC: 4 µM (≈ 9.07 µg/mL)
[7]
  MIC: 4 µM (≈ 9.07 µg/mL)
[7]; 18 h
  MBC: 4 µM (≈ 9.07 µg/mL)
[8]
  MIC: 4 µM (≈ 9.07 µg/mL)
[8]; 18 h
  MBC: 4 µM (≈ 9.07 µg/mL)
[9]
  MIC: 1 µM (≈ 2.27 µg/mL)
[9]; 18 h
  MBC: 2 µM (≈ 4.54 µg/mL)
[10]
  MIC: 4 µM (≈ 9.07 µg/mL)
[10]; 18 h
  MBC: 8 µM (≈ 18.1 µg/mL)
[11]
  MIC: 2 µM (≈ 4.54 µg/mL)
[11]; 18 h
  MBC: 4 µM (≈ 9.07 µg/mL)
[12]
  MIC: 4 µM (≈ 9.07 µg/mL)
[12]; 18 h
  MBC: 8 µM (≈ 18.1 µg/mL)
[13]; 7 days, data not shown
  Signs of toxicity (weight loss, piloerection, motility): no signs of toxicity
[13]; at least 7 days
  Survival: all survived

## LL37: the only host defense peptide encoded by the human cathelicidin gene, which eliminates bacteria by targeting membranes (LLGDFFRKSKEKIGKEFKRIVQRIKDFLRNLVPRTES; Antibacterial peptide LL-37; UniProt P49913 134-170, looked up)
[14]; P. aeruginosa 27853, 24 h treatment, various concentrations, crystal violet, absorbance 600 nm, relative to untreated control, Fig. 6A
  Biofilm biomass of pre-formed biofilms: reduced
[14]; P. aeruginosa 27853 biofilms, peptides at 4×MIC, Fig. 6B
  Cell densities in the biofilms (FE-SEM): significantly reduced
